A short description of assay [1]: EDC sterilization of pretreated cross-linked porcine aortic root tissue without lower alkanol. The following applies: tissue pretreated with acetic anhydride or a mixture of TRIS and isopropylamine; absence of a lower alkanol.
Assay [2] deals with Bacillus Subtilis (ATCC 9372)spores. Nature of the assay: Sterilization of spores inoculated in cups with cross-linked porcine heart valve leaflets (Example 1). In kind it is cell-based. The note with it: EDC 25 mM, 50 mM and 70 mM, 100 mM ethanolamine, 20% isopropyl alcohol, HEPES pH 6.5, 40° C., after one day. How it is done: When porcine aortic roots that are fixed are employed, they are cross-linked according to the method described in U.S. Pat. No. 5,447,536 or glutaraldehyde-fixed or cross-linked or fixed with any other method used to preserve tissue. After fixation, the tissue is stored in 10 mM HEPES, 0.85% NaCl, 20% isopropyl alcohol, pH 7.4, at 4° C. The sterility tests described in the following examples are conducted in the presence of bovine pericardium or porcine heart valve tissue. After such tissue is inoculated with microorganisms for test purposes and then submitted to sterilization, the solution is filtered through a 0.45 micron filter attached to a funnel (filter funnel). The tissue is washed for 20 minutes in a reciprocating shaker in the presence of peptone water containing Tween 80 in order to extract all indigenous spores or microorganisms from the tissue. This solution is then filtered through the same respective filter. The filters are then rinsed with peptone water to eliminate residual chemicals on the membrane that may prevent growth of the organisms tested. The membrane filters are incubated on solid agar TSA plates (Millipore) at about 32° to 33° C., e.g. 32.5° C. All microbiological testing is performed in a biological laminar flow hood to prevent contamination. […]

A further assay deals with spores Bacillus subtilis. Nature of the assay: Sterilization efficacy of EDC with blocking agents, spores in glass ampoules (Example 3). In kind it is cell-based. The note with it: EDC in HEPES buffer containing 20% isopropyl alcohol, in the presence or absence of tissue. How it is done:
EDC sterilization in HEPES buffer containing 20% isopropyl alcohol, carried out either in the presence or in the absence of tissue, leads to complete kill of the spores Bacillus subtilis. The following experiment was designed to test whether the sterilization efficacy of EDC remains substantially unaffected by the presence of […]. […] After 10 minutes, 10 mL of Solutions A, B, C, D, E and F containing 25 mM EDC were added, the ampoules were heat-sealed and placed at 40° C. After 24 hours, the solutions from the ampoules were filtered to recover the spores, the filters were washed with 0.1% peptone water, and these were incubated on TSA plates for up to 10 days at 32° C. to 33° C., after which the colonies were enumerated.

With `CCN=C=NCCCN(C)C.Cl` [EDC, 1-ethyl-3(3-dimethylaminopropyl) carbodiimide hydrochloride], in assay [1], the “sterilization of tissue samples” value is “effectively sterilized”. Further, the kill of spores result (in assay [2]; in the assay with spores Bacillus subtilis) was “complete kill” throughout.

The values are drawn from patent US6521179B1, “Sterilization” (Biomedical Design, Inc., priority 1999, dated 2003).
